The record followed here is US20240327364A1, “THERAPEUTIC TARGETING OF GPR68 TO INDUCE FERROPTOSIS” (University Of Maryland, Baltimore, priority 2023, published 2024).

Lpa1, sequence (Q92633 whole entry, species assumed): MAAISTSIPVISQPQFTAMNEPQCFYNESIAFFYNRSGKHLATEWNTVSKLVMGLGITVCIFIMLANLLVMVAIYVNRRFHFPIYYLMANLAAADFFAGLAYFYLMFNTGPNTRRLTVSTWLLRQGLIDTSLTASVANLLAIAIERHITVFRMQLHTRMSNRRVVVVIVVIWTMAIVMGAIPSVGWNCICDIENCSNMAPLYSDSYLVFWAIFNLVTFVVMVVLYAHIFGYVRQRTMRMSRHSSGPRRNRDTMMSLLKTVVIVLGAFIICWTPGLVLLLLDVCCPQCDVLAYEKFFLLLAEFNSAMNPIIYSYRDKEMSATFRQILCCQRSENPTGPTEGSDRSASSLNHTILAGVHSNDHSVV

In the first experiment the target is T1, GPR68/OGR1 (Homo sapiens, UniProt Q15743).
T1 construct: host or cells: Chem-1 (CHEM1-OGR1) cells
T1 sequence (Q15743 whole entry): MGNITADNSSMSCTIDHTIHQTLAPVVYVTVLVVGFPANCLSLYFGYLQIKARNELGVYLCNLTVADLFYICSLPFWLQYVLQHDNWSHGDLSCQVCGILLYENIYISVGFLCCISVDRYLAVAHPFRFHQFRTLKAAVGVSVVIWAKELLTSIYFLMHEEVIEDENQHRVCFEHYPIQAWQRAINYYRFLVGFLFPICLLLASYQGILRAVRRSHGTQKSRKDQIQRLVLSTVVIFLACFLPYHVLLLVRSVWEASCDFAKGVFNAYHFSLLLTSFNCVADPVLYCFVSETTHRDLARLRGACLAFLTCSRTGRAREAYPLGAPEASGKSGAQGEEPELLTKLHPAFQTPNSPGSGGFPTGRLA
Nature of the experiment: CHEM1-OGR1 cells Fluo-8 calcium assay, acidified media pH 6.4. It counts as cell-based. Conditions: Table 5; read-out: GPR68. As to the method:
Briefly, the methods were: On the day before the assay 20,000 cells per well of CHEM1-OGR1 cells were plated in 10% DMEM containing 10% FBS and 1% Pen/Strep into a 96 well plate. After 24 hours media was removed and cells were stained with 80 μL Fluo-8 calcium indicator dye according to manufacturer's protocol. After staining cells were treated with 20 uL of 4× concentration of test compounds. Using kinetic imaging in the Lionheart HCS fluorescence intensity was continuously measure at 10 frames per second, for 5 seconds before 100 μL of acidified media was added to the well resulting in a pH of 6.4. A ratio of fluorescence intensities prior to addition and at peak were calculated and averaged. The resulting data were platted and using a 4 parameter logistic regression EC50 (the concentration causing 50% effective inhibition) for each test compound was determined.
As to `CCc1ccc2c(c1)C1(NN=C(c3ccccc3O)S1)C(=O)N2` (stereo not drawn) [OGM4], the EC50 is 3400 nM.
On the same count and under the same terms, the result for `Cc1ccc2c(c1)C1(NN=C(c3ccccc3)S1)C(=O)N2` (stereo not drawn) [OGM3] reads 760 nM.
On the same count and under the same terms, the result for `CN1C(=O)C2(NN=C(c3cccc4ccccc34)S2)c2ccccc21` (stereo not drawn) [OGM6] reads 1500 nM.

The same experiment, now with this note: concentration causing 50% effective inhibition of calcium response to pH 6.4; read-out: EC50.
As for `CN1C(=O)C2(NN=C(c3ccccc3)S2)c2cc(Br)ccc21` (stereo not drawn) [OGM36], the EC50 was determined as 5600 nM.
In the case of `CCc1ccc2c(c1)C1(NN=C(c3ccc4ncccc4c3)S1)C(=O)N2` (stereo not drawn) [OGM40], the EC50 is 1190 nM.
The same measure, in the same setting: with `COc1ccc2c(c1)NC(=O)C21NN=C(c2ccncc2)S1` (stereo not drawn) [OGM59] the figure was 832 nM.
Same read-out and setting: with `O=C(O)c1ccc2c(c1)C1(NN=C(c3ccc4ncccc4c3)S1)C(=O)N2` (stereo not drawn) [OGM54] the figure was 4770 nM.
On to `O=C1Nc2ccc(F)cc2C12NN=C(c1ccccc1)S2` (stereo not drawn) [OGM9], for which the EC50 came out at 2840 nM.
Still for that read-out and setting: with `COc1ccc2c(c1)C1(NN=C(c3ccnc(OC)c3)S1)C(=O)N2` (stereo not drawn) [OGM63] the figure was 3520 nM.
The same measure, in the same setting: with `CCc1ccc2c(c1)C1(NN=C(c3ccc4cc(OC)ccc4c3)S1)C(=O)N2` (stereo not drawn) [OGM27] the figure was greater than 10000 nM; with `CC(C)=CCN1C(=O)C2(NN=C(c3ccc(Cl)cc3)S2)c2cc(Cl)ccc21` (stereo not drawn) [OGM31], 9080 nM.
The same measure, in the same setting: with `COc1ccc2c(c1)C1(NN=C(c3ccc(Br)cc3)S1)C(=O)N2` (stereo not drawn) [OGM73] the figure was greater than 10000 nM; with `NS(=O)(=O)c1ccc2c(c1)C1(NN=C(c3ccc4ncccc4c3)S1)C(=O)N2` (stereo not drawn) [OGM55], 3930 nM.
For the compound `O=C(O)c1ccc2c(c1)C1(NN=C(c3ccccc3)S1)C(=O)N2` (stereo not drawn) [OGM42], the EC50 came out at 1880 nM.
On the same count and under the same terms, the result for `O=C1Nc2ccc(Cl)cc2C12NN=C(c1ccc(F)cc1)S2` (stereo not drawn) [OGM21] reads 722 nM; that for `COC(=O)c1ccc2c(c1)C1(NN=C(c3cccnc3)S1)C(=O)N2` (stereo not drawn) [OGM47], greater than 10000 nM; that for `O=C1Nc2ccc(Cl)cc2C12NN=C(c1ccc(Cl)cc1)S2` (stereo not drawn) [OGM19], 2320 nM.
Same read-out and setting: with `COc1ccc(C2=NNC3(S2)C(=O)Nc2ccccc23)cc1` (stereo not drawn) [OGM10] the figure was 1440 nM; with `COc1ccc2c(c1)NC(=O)C21NN=C(c2ccc3ncccc3c2)S1` (stereo not drawn) [OGM39], 1170 nM; with `O=C1Nc2ccc(F)cc2C12NN=C(c1ccc(Cl)cc1)S2` (stereo not drawn) [OGM14], 1830 nM.
Same read-out and setting: with `O=C1Nc2ccc(F)cc2C12NN=C(c1cccnc1)S2` (stereo not drawn) [OGM56] the figure was 3580 nM; with `COC(=O)c1ccc2c(c1)C1(NN=C(c3ccc4ncccc4c3)S1)C(=O)N2` (stereo not drawn) [OGM37], 3690 nM; with `O=C1Nc2ccccc2C12NN=C(c1ccc(Cl)cc1)S2` (stereo not drawn) [OGM13], less than 826 nM.
In the case of `COC(=O)c1ccc2c(c1)C1(NN=C(c3ccccc3)S1)C(=O)N2` (stereo not drawn) [OGM41], the EC50 was 2260 nM.
Turning to `COc1ccc2c(c1)C1(NN=C(c3cccc4cccnc34)S1)C(=O)N2` (stereo not drawn) [OGM38], the EC50 is 2620 nM.
Same read-out and setting: the result for `CCc1ccc2c(c1)C1(NN=C(c3cccc4cccnc34)S1)C(=O)N2` (stereo not drawn) [OGM58] reads 5480 nM.
On the same count and under the same terms, with `O=C1Nc2ccc(F)cc2C12NN=C(c1ccc(Br)cc1)S2` (stereo not drawn) [OGM74] the figure was 296 nM; with `COc1ccc2c(c1)C1(NN=C(c3ccc4ncccc4c3)S1)C(=O)N2` (stereo not drawn) [OGM43], greater than 10000 nM.
Still for that read-out and setting: the result for `COc1ccc(C2=NNC3(S2)C(=O)N(CC=C(C)C)c2ccc(Cl)cc23)cc1` (stereo not drawn) [OGM29] reads greater than 10000 nM.
Turning to `COc1ccc2cc(C3=NNC4(S3)C(=O)Nc3ccc(F)cc34)ccc2c1` (stereo not drawn) [OGM26], the EC50 stood at 655 nM.
On the same count and under the same terms, the result for `CC(C)=CCN1C(=O)C2(NN=C(c3cccc4ccccc34)S2)c2cc(Cl)ccc21` (stereo not drawn) [OGM32] reads greater than 10000 nM; that for `COc1ccc2cc(C3=NNC4(S3)C(=O)N(CC=C(C)C)c3ccc(Cl)cc34)ccc2c1` (stereo not drawn) [OGM35], greater than 10000 nM; that for `CCc1ccc2c(c1)C1(NN=C(c3ccc(OC)cc3)S1)C(=O)N2` (stereo not drawn) [OGM28], greater than 10000 nM.
Same read-out and setting: with `COc1ccc(C2=NNC3(S2)C(=O)Nc2ccc(F)cc23)cc1` (stereo not drawn) [OGM12] the figure was 756 nM.
The same measure, in the same setting: the result for `CC(C)=CCN1C(=O)C2(NN=C(c3cccc4ccccc34)S2)c2ccccc21` (stereo not drawn) [OGM33] reads greater than 10000 nM.
With `O=C1Nc2ccccc2C12NN=C(c1ccccc1)S2` (stereo not drawn) [OGM8], the EC50 is 2740 nM.
On the same count and under the same terms, the result for `COc1ccc2c(c1)C1(NN=C(c3ccc(C(F)(F)F)nc3)S1)C(=O)N2` (stereo not drawn) [OGM75] reads 1590 nM; that for `O=C1Nc2ccc(Cl)cc2C12NN=C(c1cccc3ccccc13)S2` (stereo not drawn) [OGM23], 500 nM.
For `Cc1ccc(C2=NNC3(S2)C(=O)Nc2ccccc23)cc1` (stereo not drawn) [OGM15], the EC50 came out at 1060 nM.
The same measure, in the same setting: with `CCc1ccc2c(c1)C1(NN=C(c3ccc(C(F)(F)F)nc3)S1)C(=O)N2` (stereo not drawn) [OGM71] the figure was 10500 nM; with `COc1ccc2c(c1)NC(=O)C21NN=C(c2ccnc(OC)c2)S1` (stereo not drawn) [OGM51], 3570 nM; with `COc1ccc(C2=NNC3(S2)C(=O)Nc2ccc(Cl)cc23)cc1` (stereo not drawn) [OGM11], 4390 nM.
As to `COc1ccc2cc(C3=NNC4(S3)C(=O)N(CC=C(C)C)c3ccccc34)ccc2c1` (stereo not drawn) [OGM34], the EC50 is greater than 10000 nM.
On the same count and under the same terms, with `COc1ccc2cc(C3=NNC4(S3)C(=O)Nc3ccc(Cl)cc34)ccc2c1` (stereo not drawn) [OGM24] the figure was 90 nM.
The same measure, in the same setting: the result for `COC(=O)c1ccc2c(c1)C1(NN=C(c3cccc4cccnc34)S1)C(=O)N2` (stereo not drawn) [OGM44] reads 4050 nM; that for `O=C1Nc2ccccc2C12NN=C(c1ccc(F)cc1)S2` (stereo not drawn) [OGM20], 4000 nM.
Same read-out and setting: the result for `CCc1ccc2c(c1)C1(NN=C(c3ccnc(OC)c3)S1)C(=O)N2` (stereo not drawn) [OGM49, 5-ethyl-5′-(2-methoxypyridin-4-yl)-1,2-dihydro-3′H-spiro[indole-3,2′-[1,3,4]thiadiazol]-2-one: 2,2,2-trifluoroacetic acid] reads 1420 nM; that for `O=C1Nc2ccc(F)cc2C12NN=C(c1ccc(C(F)(F)F)nc1)S2` (stereo not drawn) [OGM76], 5760 nM.
`O=C(O)c1ccc2c(c1)C1(NN=C(c3cccnc3)S1)C(=O)N2` (stereo not drawn) [OGM61]: the EC50 is 2190 nM.
As to `O=C1Nc2ccc(F)cc2C12NN=C(c1cccc3cccnc13)S2` (stereo not drawn) [OGM46], the EC50 came out at 1470 nM.
Same read-out and setting: the result for `Cc1ccc(C2=NNC3(S2)C(=O)Nc2ccc(F)cc23)cc1` (stereo not drawn) [OGM18] reads 769 nM.
Still for that read-out and setting: the result for `CCc1ccc2c(c1)C1(NN=C(c3cccnc3)S1)C(=O)N2` (stereo not drawn) [OGM48] reads greater than 10000 nM; that for `O=C1Nc2ccc(Cl)cc2C12NN=C(c1ccccc1)S2` (stereo not drawn) [OGM7], 1170 nM; that for `COc1ccc(C2=NNC3(S2)C(=O)N(CC=C(C)C)c2ccccc23)cc1` (stereo not drawn) [OGM30], greater than 10000 nM.
With `COc1ccc2c(c1)C1(NN=C(c3ccc(Cl)cc3)S1)C(=O)N2` (stereo not drawn) [OGM22], the EC50 was determined as 669 nM.
Still for that read-out and setting: the result for `NS(=O)(=O)c1ccc2c(c1)C1(NN=C(c3ccccc3)S1)C(=O)N2` (stereo not drawn) [OGM52] reads 3730 nM; that for `Cc1ccc(C2=NNC3(S2)C(=O)Nc2ccc(Cl)cc23)cc1` (stereo not drawn) [OGM16], 785 nM.

The next experiment addresses Lpa1 (Homo sapiens, UniProt Q92633). Put plainly: Lpa1 activity of OGM analogs (Table 5). It counts as cell-based.
Conditions: not given
The procedure: GPCR profiling assays were performed by Millipore (St. Louis, MO) using in cells expressing Gα15, a promiscuous G protein that enhances GPCR coupling to downstream Ca2+ signaling pathways. KinomeScan was conducted by DiscoveRx (Fremont, CA). Since GPCRs represent >30% of targets for FDA-approved small molecules and are known to modulate cell migration, activity against 158 GPCRs was assessed based on their chemical structures. GPCRs (158) were tested for agonist and antagonist activity at 10 μM. […] Chemical segregation analysis of zebrafish phenotype was conducted to further identify the inhibitory activity responsible for the zebrafish phenotype. […] The identities of the R groups in Formula A are shown below in Table 5.
In turn, `CCc1ccc2c(c1)C1(NN=C(c3ccccc3O)S1)C(=O)N2` (stereo not drawn) [OGM4] gave an IC50 of 1400 nM.
Same read-out and setting: with `Cc1ccc2c(c1)C1(NN=C(c3ccccc3)S1)C(=O)N2` (stereo not drawn) [OGM3] the figure was 6400 nM.
As to `Cc1noc(-c2ccc(CSCCC(=O)O)cc2)c1NC(=O)OC(C)c1ccccc1Cl` (stereo not drawn) [LPAi], the half-maximal inhibitory concentration (IC50) was 250 nM.

Another experiment concerns zebrafish embryo. Nature of the experiment: Zebrafish embryo phenotype. The experiment is classed as in vivo. Conditions: concentrations up to 50 μM, ˜200× its IC50. The procedure: A chemical screen for small molecules that perturb embryonic development (dorsoventral axis) in zebrafish was performed as previously described (see Chen et al., 2009; Hao et al., 2013; Williams et al., 2015; Yu et al., 2008)). Briefly, pairs of WT zebrafish were mated, and fertilized eggs were arrayed in 96-well microtiter plates (5 embryos/well) containing […] E3 water. At 4 hours post fertilization (pf), a small molecule library from Vanderbilt High Throughput Screening Facility was added to each well to a final concentration of 10 μM. Embryos were incubated at 28.5 C until 24 and 48 hours pf, when they were examined for gross morphologic changes indicative of reproducible embryonic defects (dorsalization of the embryonic axis). A total of 30,000 compounds were screened. To discover novel small molecule modulators of embryonic development an unbiased screen of ˜30,000 small molecules was conducted, in which the compounds were assayed for their ability to induce phenotypic changes in the morphology of zebrafish. Further information on these assays can be found in Hao et al., 2013 and Williams et al., 2015. […] This compound was identified based on the phenotype of aberrant pigmentation. Compare FIG. 2B and FIG. 2C, which show a dorsal view of a representative DMSO vehicle control-treated zebrafish embryo at 48 hours pf and a dorsal view of a representative OGM1 (10 uM)-treated zebrafish embryo at 48 hours pf. […] Since GPCRs represent >30% of targets for FDA-approved small molecules and are known to modulate cell migration, activity against 158 GPCRs was assessed based on their chemical structures. GPCRs (158) were tested for agonist and antagonist activity at 10 μM. […] Chemical segregation analysis of zebrafish phenotype was conducted to further identify the inhibitory activity responsible for the zebrafish phenotype. […] The identities of the R groups in Formula A are shown below in Table 5.
On to `Cc1noc(-c2ccc(CSCCC(=O)O)cc2)c1NC(=O)OC(C)c1ccccc1Cl` (stereo not drawn) [LPAi], for which the “induction of zebrafish phenotype” value was “failed to induce the phenotype”.

Still in this experiment, the particulars now being: concentrations up to 200× the IC50.
As for `COc1cc(Br)c(S(=O)(=O)Nc2ccc(Cl)c(O[C@@H]3CCN(C)C3)c2)cc1OC` [UT2i], the “induction of zebrafish phenotype” value is reported as “failed to induce a noticeable phenotype”.
On the same count and under the same terms, the result for `Cc1noc(-c2ccc(CSCCC(=O)O)cc2)c1NC(=O)OC(C)c1ccccc1Cl` (stereo not drawn) [LPAi] reads “failed to induce a noticeable phenotype”.

A word on the IC50: it is the concentration needed to halve the response being measured. Lower therefore signals inhibition by little substance.
